Results on 14 molecules are retold here after US8003677B2, “2-heteroaryl-pyrrolo[3,4-c]pyrrole derivatives and their use as SCD inhibitors” (Sanofi-Aventis, priority 2007, dated 2011).

Usually inhibition stands for the percentage by which the read-out fell short of the control. Low readings indicate a response near the control, high ones a response far below the control.

This experiment addresses T1, SCD1 (Rattus norvegicus, UniProt P07308).
T1 construct: The resuspended microsome fraction was stored at −80° C; from tissue; host or cells: liver microsomes of male Wistar rats fed a carbohydrate-rich, low-fat diet
T1 sequence (P07308 1-358): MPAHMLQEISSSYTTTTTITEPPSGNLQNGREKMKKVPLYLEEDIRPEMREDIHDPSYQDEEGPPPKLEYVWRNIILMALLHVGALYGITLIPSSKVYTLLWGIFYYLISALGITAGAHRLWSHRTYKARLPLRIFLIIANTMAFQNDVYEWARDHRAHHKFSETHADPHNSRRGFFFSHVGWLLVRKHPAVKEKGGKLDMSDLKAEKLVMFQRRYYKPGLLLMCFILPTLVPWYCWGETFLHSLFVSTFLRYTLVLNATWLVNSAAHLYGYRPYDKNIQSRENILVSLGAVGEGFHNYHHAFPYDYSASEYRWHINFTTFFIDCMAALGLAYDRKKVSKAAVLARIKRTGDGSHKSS
Nature of the experiment: stearoyl-CoA desaturase (SCD1) activity in rat liver microsomes, TLC assay with 1-14C-labeled stearic acid. The experiment is classed as biochemical. The following applies: inhibition of SCD1 activity; compound at 10 μM/l; 15 μg rat liver microsomes (male Wistar rats); 37° C., 1 h. On the procedure:
The efficacy of the inventive compounds of the formula I was tested with microsomal enzymes in the following assay system:
The livers of male Wistar rats which (to induce the expression of SCD1) had been fed with a carbohydrate-rich, low-fat diet were homogenized with a Potter tissue homogenizer and differential centrifugation in a buffer which contained 250 mM/l of sucrose and 5 mM/l of HEPES (pH 7.0). The resuspended microsome fraction was stored at −80° C. The stearoyl-CoA desaturase activity was determined in a thin-film chromatography assay with 1-^14C-labeled stearic acid. In short, the particular inventive compounds (in DMSO in a final concentration of 1% [v/v]) were incubated with 15 μg of the rat liver microsomes in 200 μl of assay buffer (6 mM/l of MgCl2, 250 mM/l of sucrose, 150 mM/l of KCl, 40 mM/l of NaF, 100 mM/l of Na2HPO4 (pH7.4), 1.3 mM/l of ATP, 1.5 mM/l of reduced glutathione, 60 uM/l of CoA, 0.33 mM/l of nicotinamide and 0.94 mM/l of NADH) at room temperature for 10 min. 0.5 μCi [1-^14C]-stearic acid (55 mCi/mmol) was added, and the mixture was incubated at 37° C. for 1 h. The radioactively labeled fatty acids were subsequently hydrolyzed at 65° C. with 2.5 M KOH/MeOH:H2O (4:1) for 4 h, protonated with 280 μl of formic acid and extracted with 500 μl of hexane. The TLC plates were immersed into 10% AgNO3 and heat-activated before use. 150 μl of the hexane phase were applied to the plates, and the TLC plates were developed in buffer (chloroform:methanol:acetic acid:water [90:8:1:0.8]) and dried. The plates were read off in a phosphoimager to quantify the SCD1 activity.
The person skilled in the art can modify this assay in various aspects to determine the inhibition of the stearoyl-CoA desaturase activity.
On the technique in general: Liver microsomes are a subcellular fraction often used to study metabolism.
On to `CCOC(=O)c1cnc(N2CC3=C(CN(C(=O)c4ccccc4C(F)(F)F)C3)C2)s1` [Example 1, Ethyl 2-[5-(2-trifluoromethylbenzoyl)-3,4,5,6-tetrahydro-1H-pyrrolo[3,4-c]pyrrol-2-yl]thiazole-5-carboxylate], for which the inhibition at 10 µM is 65%. Molecule `O=C(NCCC1CC1)c1cnc(N2CC3=C(CN(C(=O)c4ccccc4C(F)(F)F)C3)C2)s1` [Example 2, N-(2-Cyclopropylethyl)-2-[5-(2-trifluoromethylbenzoyl)-3,4,5,6-tetrahydro-1H-pyrrolo-[3,4-c]pyrrol-2-yl]thiazole-5-carboxamide] registered an inhibition at 10 µM of 31%. For `O=C(NCCCc1ccccc1)c1cnc(N2CC3=C(CN(C(=O)c4ccccc4C(F)(F)F)C3)C2)s1` [Example 9, N-(3-Phenylpropyl)-2-[5-(2-trifluoromethylbenzoyl)-3,4,5,6-tetrahydro-1H-pyrrolo[3,4-c]-pyrrol-2-yl]thiazole-5-carboxamide], the inhibition at 10 µM was 26%. For `CC(C)CCNC(=O)c1ccc(N2CC3=C(CN(C(=O)c4ccccc4C(F)(F)F)C3)C2)nc1` [Example 10, N-(3-Methylbutyl)-6-[5-(2-trifluoromethylbenzoyl)-3,4,5,6-tetrahydro-1H-pyrrolo[3,4-c]-pyrrol-2-yl]nicotinamide] the value was 100%.

Molecule `O=C(NCCc1ccccc1)c1ccc(N2CC3=C(CN(C(=O)c4ccccc4C(F)(F)F)C3)C2)nc1` [Example 13, N-Phenethyl-6-[5-(2-trifluoromethylbenzoyl)-3,4,5,6-tetrahydro-1H-pyrrolo[3,4-c]pyrrole-2-yl]nicotinamide] returned an inhibition at 10 µM of 100%. Molecule `O=C(NCCC1CC1)c1ccc(N2CC3=C(CN(C(=O)c4ccccc4C(F)(F)F)C3)C2)nc1` [Example 14, N-(2-Cyclopropylethyl)-6-[5-(2-trifluoromethylbenzoyl)-3,4,5,6-tetrahydro-1H-pyrrolo-[3,4-c]pyrrol-2-yl]nicotinamide] showed an inhibition at 10 µM of 100%.

`O=C(NCc1nccs1)c1ccc(N2CC3=C(CN(C(=O)c4ccccc4C(F)(F)F)C3)C2)nc1` [Example 15, N-Thiazol-2-ylmethyl-6-[5-(2-trifluoromethylbenzoyl)-3,4,5,6-tetrahydro-1H-pyrrolo-[3,4-c]pyrrol-2-yl]nicotinamide] had an inhibition at 10 µM of 100%. For `CN(Cc1nccs1)C(=O)c1ccc(N2CC3=C(CN(C(=O)c4ccccc4C(F)(F)F)C3)C2)nc1` [Example 16, N-Methyl-N-thiazol-2-ylmethyl-6-[5-(2-trifluoromethylbenzoyl)-3,4,5,6-tetrahydro-1H-pyrrolo[3,4-c]pyrrol-2-yl]nicotinamide] the value was 100%; for `O=C(NCC1CC1)c1ccc(N2CC3=C(CN(C(=O)c4ccccc4C(F)(F)F)C3)C2)nc1` [Example 17, N-Cyclopropylmethyl-6-[5-(2-trifluoromethylbenzoyl)-3,4,5,6-tetrahydro-1H-pyrrolo-[3,4-c]pyrrol-2-yl]nicotinamide], 97%. `CCC(O)CCNC(=O)c1ccc(N2CC3=C(CN(C(=O)c4cc(OC)ccc4Br)C3)C2)nn1` (centres unmarked) [Example 18, N-(3-Hydroxypentyl)-6-[5-(2-bromo-5-methoxybenzoyl)-3,4,5,6-tetrahydro-1H-pyrrolo-[3,4-c]pyrrol-2-yl]pyridazine-3-carboxamide] returned an inhibition at 10 µM of 38%. In the case of `O=C(NCCC1CC1)c1ccc(N2CC3=C(CN(C(=O)c4ccccc4C(F)(F)F)C3)C2)nn1` [Example 19, N-(2-Cyclopropylethyl)-6-[5-(2-trifluoromethylbenzoyl)-3,4,5,6-tetrahydro-1H-pyrrolo-[3,4-c]pyrrol-2-yl]pyridazine-3-carboxamide] it was 100%; in that of `O=C(NCc1cncs1)c1ccc(N2CC3=C(CN(C(=O)c4ccccc4C(F)(F)F)C3)C2)nc1` [Example 20, N-Thiazol-5-ylmethyl-6-[5-(2-trifluoromethylbenzoyl)-3,4,5,6-tetrahydro-1H-pyrrolo-[3,4-c]pyrrol-2-yl]nicotinamide], 100%; in that of `O=C(NCC1CCCC1)c1ccc(N2CC3=C(CN(C(=O)c4ccccc4C(F)(F)F)C3)C2)nc1` [Example 21, N-Cyclopentylmethyl-6-[5-(2-trifluoromethylbenzoyl)-3,4,5,6-tetrahydro-1H-pyrrolo-[3,4-c]pyrrol-2-yl]nicotinamide], 100%. Take `O=C(NCCC1CCCC1)c1ccc(N2CC3=C(CN(C(=O)c4ccccc4C(F)(F)F)C3)C2)nc1` [Example 22, N-(2-Cyclopentylethyl)-6-[5-(2-trifluoromethylbenzoyl)-3,4,5,6-tetrahydro-1H-pyrrolo-[3,4-c]pyrrol-2-yl]nicotinamide]: the inhibition at 10 µM worked out at 100%.
